This is an account of results in patent US8987248B2, “Substituted piperidines as Par-1 antagonists” (Bayer Intellectual Property GmbH, priority 2009, dated 2015).

The target in this test is human protease activated receptor 1 (PAR-1) (Homo sapiens (Human), UniProt P25116). Description: Cellular, functional in vitro test (aequorin luminescence, calcium release in recombinant HEK293 PAR-1 test cell). It counts as cell-based. Conditions: HEK293-derived PAR-1 test cell line expressing aequorin; PAR-1 agonist added at its EC50, 5 min after test substance. The source says:
1.a) Cellular, Functional In Vitro Test
A recombinant cell line is used to identify […] of the human protease activated receptor 1 (PAR-1) and to quantify the activity of the substances described herein. The cell is originally derived from a human embryonal kidney cell (HEK293; ATCC: American Type Culture Collection, Manassas, Va. 20108, USA). The test cell line constitutively expresses a modified form of the calcium-sensitive photoprotein aequorin which, after reconstitution with the cofactor coelenterazine, emits light when the free calcium concentration in the inner mitochondrial compartment is increased (Rizzuto R, Simpson A W, Brini M, Pozzan T.; Nature 1992, 358, 325-327). Additionally, the cell stably expresses the endogenous human PAR-1 receptor and the endogenous purinergic receptor P2Y2. The resulting PAR-1 test cell responds to stimulation of the endogenous PAR-1 or P2Y2 receptor with an intracellular release of calcium ions, which can be quantified through resulting aequorin luminescence with a suitable luminometer (Milligan G, Marshall F, Rees S, Trends in Pharmacological Sciences 1996, 17, 235-237).
For the testing of the substance specificity, the effect thereof after activation of the endogenous PAR-1 receptor is compared with the effect after activation of the endogenous purinergic P2Y2 receptor which utilizes the same intracellular signal path.
Two days (48 hours) before the assay, the cells are plated out in culture medium (DMEM F12, supplemented with 10% FCS, 2 mM glutamine, 10 mM HEPES, 1.4 mM pyruvate, 0.1 mg/ml gentamycin, 0.15% Na bicarbonate; BioWhittaker Cat. #BE04-687Q; B-4800 Verviers, Belgium) in 384-well microtitre plates and kept in a cell incubator (96% humidity, 5% v/v CO2, 37° C.). On the day of the test, the culture medium is replaced by a tyrode solution (in mM: 140 sodium chloride, 5 potassium chloride, 1 magnesium chloride, 2 calcium chloride, 20 glucose, 20 HEPES), which additionally contains the cofactor coelenterazine (25 μM) and glutathione (4 mM), and the microtitre plate is then incubated for a further 3-4 hours. The test substances are then pipetted onto the microtitre plate, and 5 minutes after the transfer of the test substances into the wells of the microtitre plate the plate is transferred into the luminometer, a PAR-1 agonist concentration which corresponds to the EC50 is added and the resulting light signal is immediately measured in the luminometer. To distinguish an antagonist substance action from a toxic action, the endogenous purinergic receptor is immediately subsequently activated with agonist (ATP, final concentration 10 μM) and the resulting light signal is measured.

Each structure is given as a SMILES string. Counter-ions that a name gives are not always drawn.

Sequence of human protease activated receptor 1 (PAR-1) (P25116 22-425): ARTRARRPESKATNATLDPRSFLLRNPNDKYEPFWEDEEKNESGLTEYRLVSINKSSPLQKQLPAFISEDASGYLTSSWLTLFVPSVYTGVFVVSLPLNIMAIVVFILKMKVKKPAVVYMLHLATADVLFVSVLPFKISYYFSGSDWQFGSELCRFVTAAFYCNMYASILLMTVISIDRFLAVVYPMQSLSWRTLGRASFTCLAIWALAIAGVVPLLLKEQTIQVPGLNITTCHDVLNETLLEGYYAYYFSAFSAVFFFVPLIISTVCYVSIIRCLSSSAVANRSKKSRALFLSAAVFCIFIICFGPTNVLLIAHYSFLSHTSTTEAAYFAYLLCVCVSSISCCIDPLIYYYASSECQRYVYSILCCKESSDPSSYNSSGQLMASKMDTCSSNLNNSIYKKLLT

As to `CCc1ccc(C2CC(C(=O)Nc3ccccc3)CN(C(=O)CCOC)C2)cc1` (racemic) [Example 8, 5-(4-Ethylphenyl)-1-(3-methoxypropanoyl)-N-phenylpiperidine-3-carboxamide], the IC50 (in general, the concentration needed to halve the response being measured) is 109 nM.

For `O=C(NC1CC(c2ccc(C(F)(F)F)cc2)CN(C(=O)N2CCC(O)CC2)C1)C1CCCC1` (racemic) [Example 170, N-{1-[(4-Hydroxypiperidin-1-yl)carbonyl]-5-[4-(trifluoromethyl)phenyl]piperidin-3-yl}cyclopentanecarboxamide], the IC50 stood at 21.3 nM.

For `O=C(NC1CC(c2ccc(C(F)(F)F)cc2)CN(C(=O)N2CCC(O)CC2)C1)C1CCCC1` (single isomer, unassigned) [Example 177, N-{1-[(4-Hydroxypiperidin-1-yl)carbonyl]-5-[4-(trifluoromethyl)phenyl]piperidin-3-yl}cyclopentanecarboxamide], the IC50 was determined as 81 nM.

On to `CCc1ccc(C2CC(NC(=O)N(C)c3ccccc3)CN(C(=O)C3CCCC3)C2)cc1` (racemic) [Example 95, 3-[1-(Cyclopentylcarbonyl)-5-(4-ethylphenyl)piperidin-3-yl]-1-methyl-1-phenylurea], for which the IC50 amounted to 237 nM.

As to `CCc1ccc(C2CC(C(=O)Nc3ccccc3)CN(C(=O)c3scnc3C)C2)cc1` (racemic) [Example 36], the IC50 came out at 98.2 nM.

Consider `O=C(NC1CC(c2ccc(C(F)(F)F)cc2)CN(C(=O)N2CCS(=O)(=O)CC2)C1)c1ccccc1` (racemic) [Example 134, N-{1-[(1,1-Dioxidothiomorpholin-4-yl)carbonyl]-5-[4-(trifluoromethyl)phenyl]piperidin-3-yl}-benzenecarboxamide], for which the IC50 was determined as 15.4 nM.

For `O=C1CN(C(=O)N2CC(NC(=O)c3ccccc3)CC(c3ccc(C(F)(F)F)cc3)C2)CCN1` (racemic) [Example 141, N-{1-[(3-Oxopiperazin-1-yl)carbonyl]-5-[4-(trifluoromethyl)phenyl]piperidin-3-yl}benzenecarboxamide], the IC50 was 53.7 nM.

`CCc1ccc(C2CC(NC(=O)OC)CN(C(=O)N3CCOCC3)C2)cc1` (racemic) [Example 102, Methyl [5-(4-ethylphenyl)-1-(morpholin-4-ylcarbonyl)piperidin-3-yl]carbamate]: the IC50 was determined as 165 nM.

With `CCc1ccc(C2CC(NC(=O)C(C)(C)C)CN(C(=O)C3CCCC3)C2)cc1` (racemic) [Example 90, N-[1-(Cyclopentylcarbonyl)-5-(4-ethylphenyl)piperidin-3-yl]-2,2-dimethylpropanamide], the IC50 was 359 nM.

Consider `Cc1cccc(C(=O)NC2CC(c3ccc(C(F)(F)F)cc3)CN(C(=O)N3CCOCC3)C2)n1` (racemic) [Example 162], for which the concentration for half-maximal inhibition (IC50) was determined as 25 nM.

As for `CCc1ccc(C2CC(NS(=O)(=O)Cc3ccccc3)CN(C(=O)C3CCCC3)C2)cc1` (racemic) [Example 104, N-[1-(Cyclopentylcarbonyl)-5-(4-ethylphenyl)piperidin-3-yl]-1-phenylmethanesulphonamide], the half-maximal inhibitory concentration (IC50) turned out to be 248 nM.

Take `C[C@@H]1CC[C@@H](C)N1C(=O)N1CC(NC(=O)c2ccccc2)CC(c2ccc(C(F)(F)F)cc2)C1` (mixture of isomers) [Example 133, N-(1-{[(2R,5R)-2,5-Dimethylpyrrolidin-1-yl]carbonyl}-5-[4-(trifluoromethyl)phenyl]piperidin-3-yl)benzenecarboxamide]: the IC50 was 14.6 nM.

In the case of `CCc1ccc(C2CC(C(=O)Nc3ccccc3)CN(C(=O)C3(CC)COC3)C2)cc1` (racemic) [Example 18], the IC50 turned out to be 483 nM.

As to `O=C(NC1CC(c2ccc(C(F)(F)F)cc2)CN(C(=O)N2CCC(O)CC2)C1)c1ccccc1` (racemic) [Example 129, N-{1-[(4-Hydroxypiperidin-1-yl)carbonyl]-5-[4-(trifluoromethyl)phenyl]piperidin-3-yl}benzenecarboxamide], the IC50 was 33.6 nM.

Regarding `CCc1ccc(C2CC(NC(=O)Nc3ccccc3)CN(C(=O)N3CCCC3)C2)cc1` (racemic) [Example 91, N-[5-(4-Ethylphenyl)-1-(pyrrolidin-1-ylcarbonyl)piperidin-3-yl]-3-phenylurea], the IC50 was found to be 17.4 nM.

Turning to `N#CC1CCN(C(=O)N2CC(NC(=O)C3CCCC3)CC(c3ccc(C(F)(F)F)cc3)C2)CC1` (single isomer, unassigned) [Example 178, N-{1-[(4-Cyanopiperidin-1-yl)carbonyl]-5-[4-(trifluoromethyl)phenyl]piperidin-3-yl}cyclopentanecarboxamide], the IC50 was found to be 63 nM.

In the case of `CCc1ccc(C2CC(NC(=O)c3ccc(-c4cccc(C(F)(F)F)c4)cn3)CN(C(=O)C3CCCC3)C2)cc1` (racemic) [Example 83, N-[1-(Cyclopentylcarbonyl)-5-(4-ethylphenyl)piperidin-3-yl]-5-[3-(trifluoromethyl)phenyl]pyridine-2-carboxamide], the IC50 is 19.7 nM.

Turning to `O=C(NC1CC(c2ccc(C(F)(F)F)cc2)CN(C(=O)N2CCOCC2)C1)c1ccccc1` (single isomer, unassigned) [Example 128, N-{1-(Morpholin-4-ylcarbonyl)-5-[4-(trifluoromethyl)phenyl]piperidin-3-yl}benzenecarboxamide], the IC50 is 17 nM.

On to `O=C(NC1CC(c2ccc(OC(F)(F)F)cc2)CN(C(=O)c2ccncc2)C1)c1ccccc1` (single isomer, unassigned) [Example 115, N-{1-(Pyridin-4-ylcarbonyl)-5-[4-(trifluoromethoxy)phenyl]piperidin-3-yl}benzenecarboxamide], for which the IC50 amounted to 11.1 nM.

On to `Cc1ccc(C2CC(NC(=O)c3ccccc3)CN(C(=O)C3(N)CCC3)C2)cc1C` (racemic) [Example 119, N-{1-[(1-Aminocyclobutyl)carbonyl]-5-(3,4-dimethylphenyl)piperidin-3-yl}benzenecarboxamide hydrochloride], for which the IC50 worked out at 15.7 nM.

For the molecule `CCc1ccc(C2CC(C(=O)Nc3ccccc3)CN(C(=O)C(C)(C)CF)C2)cc1` (racemic) [Example 7, 5-(4-Ethylphenyl)-1-(3-fluoro-2,2-dimethylpropanoyl)-N-phenylpiperidine-3-carboxamide], the IC50 was 29 nM.
